Measurements reported in PubChem BioAssay (NCI).
Where “and” joins values, the source holds several entries; their conditions need not be identical. Identical values can stand only once.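 Method: 48-hour compound exposure of cells in 96-well plates, five concentrations, linear interpolation of endpoints. The concentration for 50% growth inhibition is given as GI50. TGI marks complete inhibition of growth.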

Tests used:
Test in all cases: inhibition of tumour cell growth, NCI panel, 48 h
[1] = test system: SF-295 CNS
[2] = test system: A498 renal
[3] = test system: SK-MEL-28 melanoma
[4] = test system: NCI-H522 lung
[5] = test system: HL-60(TB) leukemia
[6] = test system: HOP-62 NSCLC
[7] = test system: OVCAR-3 ovarian
[8] = test system: U251 CNS
[9] = test system: SNB-75 CNS
[10] = test system: MDA-MB-435

SMILES | TGI [1] [µM] | TGI [2] | TGI [3] [µM] | TGI [4] | TGI [5] | TGI [6] | TGI [7] [µM] | TGI [8] [µM] | TGI [9] [µM] | GI50 [1] [µM] | GI50 [3] [µM] | GI50 [4] | GI50 [6] [µM] | GI50 [7] [µM] | GI50 [8] [µM] | GI50 [10] [µM] | TGI [10] [µM] | GI50 [2] [µM] | GI50 [5] [µM] | GI50 [9] [µM]
O=[N+]([O-])c1cccc(/C=N\NS(=O)(=O)c2ccc(Cl)cc2)c1O | > 100 | > 100 µM | > 100 | > 100 µM | > 100 µM | > 100 µM | > 100 | > 100 | > 100 |  |  |  |  |  |  |  |  |  |  | 
COc1cc2c(cc1OCCCOc1cc3c(cc1OC)C(=O)N1C[C@H](F)C[C@H]1C=N3)N=C[C@@H]1C[C@@H](F)CN1C2=O | 18.1 |  | 29.9 | 4.59 µM |  | 19.3 µM | 26 | 4.46 |  | 5.36 | 15.7 | 1.88 µM | 6.2 | 9.75 | 1.96 | 14.3 | 27.4 |  |  | 
CC[C@@H]1OC2(C)CC(S(=O)(=O)c3ccccc3O)CC1O2 (stereo not given in full) | > 100 |  | > 100 | > 100 µM | > 100 µM | > 100 µM | > 100 | > 100 | > 100 |  |  |  |  |  |  |  |  |  |  | 
COC(=O)c1s/c(=N\C(=S)N(C)C)n(-c2ccccc2)c1C(=O)OC | > 100 | > 100 µM | > 100 | > 100 µM | > 100 µM | > 100 µM | > 100 | > 100 | > 100 |  |  |  |  |  |  |  |  |  |  | 
Cc1c(NC(=O)C(C)(C)Br)c(=O)oc2c(C)c3occc(=O)c3cc12 | > 100 | 66.3 µM | > 100 |  | > 100 µM | > 100 µM | > 100 | > 100 | > 100 |  |  |  |  |  |  |  |  |  |  | 
O=C(Nc1cc(Cl)c(Cl)cc1Cl)C(=O)C1C=CCS1(=O)=O (stereo not given) | > 100 | > 100 µM | > 100 | > 100 µM | > 100 µM | > 100 µM | > 100 | > 100 | > 100 |  |  |  |  |  |  |  |  |  |  | 
COc1ccc(NC(=O)C(=O)C(C(=O)c2ccccc2)C2OC(=O)c3ccccc32)c([N+](=O)[O-])c1 (stereo not given) | > 100 | > 100 µM | > 100 | > 100 µM | > 100 µM | > 100 µM |  | > 100 | > 100 |  |  |  |  |  |  |  |  |  |  | 
CC1C[C@@]2(c3ccccc3)C(=O)CCC[C@H]2N1 (stereo not given in full) | > 100 | > 100 µM | > 100 | > 100 µM | > 100 µM | > 100 µM | > 100 | > 100 | > 100 |  |  |  |  |  |  |  |  |  |  | 
CC1=C(C(=O)Nc2ccccc2C)C(c2ccc(Cl)c(Cl)c2)C(C(=O)Nc2ccccc2C)=C(C)N1 | 43.2 | 61.8 µM | 71.1 | 29.1 µM | 45.4 µM | 66.5 µM | 49.8 | 40.5 | > 100 |  |  |  |  |  |  |  |  |  |  | 
COc1cc(/C=C(\C#N)C(=O)c2ccccc2)ccc1OCc1ccccc1 | > 100 |  | > 100 | > 100 µM | > 100 µM | > 100 µM | > 100 |  |  |  |  |  |  |  |  |  |  |  |  | 
CC(C)CS(=O)(=O)/C(=C(\c1ccc(Br)cc1)S(=O)(=O)CC(C)C)c1ccc(Br)cc1 | > 100 | 31.6 µM | > 100 | > 100 µM |  | > 100 µM | > 100 | > 100 | > 100 |  |  |  |  |  |  |  |  |  |  | 
NC(=O)C(=Cc1ccc(C(O)P(=O)(O)O)cc1)C(N)=O (stereo not given) | > 100 | > 100 µM | > 100 | > 100 µM |  | > 100 µM | > 100 | > 100 | > 100 |  |  |  |  |  |  |  |  |  |  | 
Cc1cc(Cl)ccc1NC(=O)CCCC(=O)C1CCCC1=O (stereo not given) | > 100 | > 100 µM |  | > 100 µM | > 100 µM |  | > 100 | > 100 |  |  |  |  |  |  |  |  |  |  |  | 
CCOC(=O)NC(=O)c1cn(CC(=O)NCC(=O)NCC(=O)NCCCN2CCN(CCCNC(=O)CNC(=O)CNC(=O)Cn3cc(C(=O)NC(=O)OCC)c(=O)[nH]c3=O)CC2)c(=O)[nH]c1=O | > 100 | > 100 µM | > 100 | > 100 µM | > 100 µM | > 100 µM | > 100 | > 100 | > 100 |  |  |  |  |  |  |  |  |  |  | 
CCCCCCCCC[C@@H]1CC(=O)OCC2OC(O[C@H](CCCCCCCCC)CC(=O)OCC3OC(O[C@H](CCCCCCCCC)CC(=O)OCC4OC(O1)C(O)C(O)C4O)C(O)C(O)C3O)C(O)C(O)C2O (stereo not given in full) | 27.1 | 27.9 µM | 18.6 | 23.5 µM | 31.8 µM | 26.1 µM | 32.1 | 21.4 | 22.5 |  |  |  |  |  |  |  |  |  |  | 
Cc1[nH]c2ccccc2c1C1Cc2ccccc2N1C(=O)/C=C\C(=O)O (stereo not given) | 99.4 | > 100 µM |  | 77.4 µM | 68.2 µM | > 100 µM | > 100 | 70.7 | > 100 |  |  |  |  |  |  |  |  |  |  | 
COc1ccc([N+]2=NC(c3ccc([N+](=O)[O-])cc3)=NN(c3ccccc3)C2)cc1 | > 100 | > 100 µM | > 100 | 5.87 µM and 10.5 µM | 83.2 µM and 69.3 µM | > 100 µM | > 100 | > 100 |  |  |  |  |  |  |  |  |  |  |  | 
Cc1c[nH]c2c(O)cc3c(c12)[C@H](CCl)CN3C(=O)c1cc2cc(NC(=O)Nc3ccc4[nH]c(C(=O)N5C[C@@H](CCl)c6c5cc(O)c5[nH]cc(C)c65)cc4c3)ccc2[nH]1 |  | 75.7 nM and 15 µM and 0.00215 µg/mL |  | 20.2 nM and 2e-06 µg/mL |  | 18.9 µM and 8.9e-07 µg/mL and 0.000888 µg/mL | 43.2 |  |  |  |  | 4.49 nM and 8.9e-07 µg/mL |  |  |  | 0.0146 |  |  |  | 
Nc1c(C(=O)c2ccc(Cl)cc2)sc(Nc2ccccc2)c1-c1nc2ccccc2s1 | 10.8 | 19.1 µM | > 100 | > 74.1 µM | > 100 µM | 65.8 µM |  | 36.3 | 9.5 | 2.18 | 4.31 | 3.13 µM | 3.71 |  | 3.06 |  |  | 3.67 | > 57.3 | 1.89
NNC(=O)/C(=C/c1ccc(Cl)c(Cl)c1)NC(=O)c1ccccc1 | > 100 |  | > 100 |  | > 100 µM | > 100 µM | > 100 | > 100 | > 100 |  |  |  |  |  |  |  |  |  |  | 
CCNC(=O)CCN(C(=O)O)S(=O)(=O)c1ccc(NC(=O)c2ccccc2)cc1 | > 100 | > 100 µM | > 100 | > 100 µM | > 100 µM | > 100 µM | > 100 | > 100 | > 100 |  |  |  |  |  |  |  |  |  |  | 
c1ccc2c(c1)CCC/C2=N\OCC1CO1 (stereo not given) | > 100 | > 100 µM |  |  | 92.1 µM | > 100 µM | > 100 | > 100 | > 100 |  |  |  |  |  |  |  |  |  |  | 
